Biological target: T1, human CaMKIIδ (Homo sapiens, UniProt Q13557)
T1 construct: Full-length, glutathione-S-transferase(GST)-tagged, human CaMKIIδ was purchased from Carna Biosciences; purchased Carna Biosciences (CaMKIIδ); Wako Pure Chemical Industries (calmodulin) 02-111
Experiment: Evaluation of in vitro CaMKII inhibitory activity (binding assay, TR-FRET)
Settings: human CaMKIIδ, TR-FRET binding assay; class symbols A/B/C; read-out: Act (CaMKII inhibitory activity, binding assay)
Experimental: Evaluation of In Vitro CaMKII Inhibitory Activity (Binding Assay)
In vitro CaMKIIδ inhibitory activity was evaluated by a binding assay.
Full-length bovine calmodulin was purchased from Wako Pure Chemical Industries (Osaka, Japan). Terbium-labeled anti-GST anti body (Tb-anti-GST Ab) was purchased from Life Technologies (Carlsbad, CA, USA). Fluorescent probe ligand, 5,5-difluoro-7,9-dimethyl-3-(3-oxo-3-((3-((4-(3-(piperazin-1-yl)phenyl)pyrimidin-2-yl)amino)phenyl)amino) propyl)-5H-dipyrrolo[1,2-c:2′,1′-f]
Time-resolved fluorescence resonance energy transfer (TR-FRET) assay
The fluorescent probe ligand, 5,5-difluoro-7,9-dimethyl-3-(3-oxo-3-((3-((4-(3-(piperazin-1-yl)phenyl)pyrimidin-2-yl)amino)phenyl)amino) propyl)-5H-dipyrrolo[1,2-c:2′,1′-f] […] After shaded incubation of the protein-probe mixture on ice for 30 min, the premix was dispensed in the assay plate including test inhibitors with 4 fold dilution series of eight concentrations. After 1 hr incubation at room temperature, TR-FRET signals were measured in duplicate using an EnVision microplate reader (Perkin Elmer, Waltham, MA, USA).
The half maximal inhibitory concentration (IC50) of test compounds was calculated by fitting the data with the logistic equation using XLfit (IDBS, Guildford, UK).

SMILES	IC50
Cc1ncc(-c2cnn3ccc(-c4ccc(F)c(O[C@@H](C)Cn5cnnn5)c4)nc23)s1 [compound 141]	< 0.01 µM
C[C@@H](Cn1cnnn1)Oc1cc(-c2ccn3ncc(-c4ccc(CN(C)C)cc4)c3n2)ccc1F [compound 41]	< 0.01 µM
C[C@@H](Cn1cnnn1)Oc1cccc(-c2ccn3ncc(-c4cccc(C(=O)Nc5cn[nH]c5)c4)c3n2)c1 [compound 65]	< 0.01 µM
C[C@@H](Cn1cnnn1)Oc1cc(-c2ccn3ncc(-c4ccoc4)c3n2)ccc1F [compound 19]	< 0.01 µM
C[C@@H](Cn1cnnn1)Oc1cc(-c2ccc3ncc(-c4cccc(OCC5CCC(=O)N5)c4C#N)n3n2)ccc1F (stereo partly drawn) [compound 200]	< 0.01 µM
C[C@@H](Cn1cnnn1)Oc1cc(-c2ccc3ncc(-c4cccc(OCCOCCN(C)C)c4C#N)n3n2)ccc1F [compound 209]	< 0.01 µM
C[C@@H](Cn1cnnn1)Oc1cc(-c2ccn3ncc(-c4ccccc4C(F)F)c3n2)ccc1F [compound 149]	0.01 to 0.1 µM
C[C@@H](Cn1cnnn1)Oc1cc(-c2ccc3ncc(-c4cccc(OCC(=O)O)c4C#N)n3n2)ccc1F [compound 216]	< 0.01 µM
COc1cccc(-c2cnc3ccc(-c4ccc(F)c(O[C@@H](C)Cn5cnnn5)c4)nn23)c1C#N [compound 197]	< 0.01 µM
COc1ccnc(-c2cnc3ccc(-c4cc(O[C@@H](C)Cn5cnnn5)ccn4)nn23)c1C#N [compound 486]	0.01 to 0.1 µM
C[C@@H](Cn1cnnn1)Oc1cc(-c2ccn3ncc(-c4ccccc4N4CCNCC4)c3n2)ccc1F [compound 55]	> 0.1 µM
C[C@@H](Cn1cnnn1)Oc1cc(-c2ccc3ncc(-c4cccnc4N)n3n2)ccc1F [compound 194]	0.01 to 0.1 µM
C[C@@H](Cn1cnnn1)Oc1cc(-c2ccn3ncc(-c4cccc(CN(C)C)c4)c3n2)ccc1F [compound 40]	< 0.01 µM
C[C@@H](Cn1cnnn1)Oc1cc(-c2ccn3ncc(-c4ccc(N5CCNCC5)cc4)c3n2)ccc1F [compound 56]	< 0.01 µM
COCCCn1ncc(-c2cnc3ccc(-c4ccc(F)c(O[C@@H](C)Cn5cnnn5)c4)nn23)c1C(=O)O [compound 230]	> 0.1 µM
C[C@@H](Cn1cnnn1)Oc1cc(-c2ccc3ncn(-c4cccc(C(=O)O)c4C#N)c3n2)ccc1F [compound 189]	0.01 to 0.1 µM
C[C@@H](Cn1cncn1)Oc1cccc(-c2ccn3ncc(-c4cccs4)c3n2)c1 [Example 61, 1-[(2S)-2-{3-[3-(thiophen-2-yl)pyrazolo[1,5-a]pyrimidin-5-yl]phenoxy}propyl]-1H-1,2,4-triazole]	< 0.01 µM
C[C@@H](Cn1cnnn1)Oc1cc(-c2ccc3ncn(-c4cccc5c4C(=O)N(C)C5=O)c3n2)ccc1F [compound 193]	> 0.1 µM
C[C@@H](Cn1cnnn1)Oc1cccc(-c2ccn3ncc(-c4cccc(C(=O)N5CCOCC5)c4)c3n2)c1 [compound 71]	0.01 to 0.1 µM
COC(=O)c1cccc(-c2cnn3ccc(-c4ccc(F)c(O[C@@H](C)Cn5cnnn5)c4)nc23)c1Cl [compound 128]	0.01 to 0.1 µM
C[C@@H](Cn1cnnn1)Oc1cc(-c2ccn3ncc(-c4ccsc4)c3n2)ccc1F [compound 26]	< 0.01 µM
C[C@@H](Cn1cnnn1)Nc1cncc(-c2ccc3ncc(-c4cc(F)ccc4C#N)n3n2)n1 [compound 484]	< 0.01 µM
CCNC(=O)c1cccc(-c2cnn3ccc(-c4ccc(F)c(O[C@@H](C)Cn5cnnn5)c4)nc23)c1 [compound 8]	< 0.01 µM
COCCNc1cccc(-c2cnn3ccc(-c4ccc(F)c(O[C@@H](C)Cn5cnnn5)c4)nc23)c1C#N [compound 180]	< 0.01 µM

Same assay, conditions: in vitro CaMKII inhibitory activity (binding assay), human CaMKIIδ; read-out: Act

SMILES	IC50
C[C@@H](Cn1cnnn1)Oc1cccc(-c2ccc3ncc(-c4cc(F)cnc4OCC#N)n3n2)c1 [compound 359]	< 0.01 µM
C[C@@H](Cn1cnnn1)Oc1cccc(-c2ccc3ncn(-c4cc(C(F)F)ccc4C#N)c3n2)n1 [compound 382]	> 0.1 µM
COc1cc(Cl)cc(-c2cnc3ccc(-c4cncc(O[C@@H](C)Cn5cnnn5)n4)nn23)c1C#N [compound 455]	< 0.01 µM
COc1cccc(-c2cnc3ccc(-c4cccc(O[C@@H](C)Cn5cnnn5)n4)nn23)c1C#N [compound 404, 2-methoxy-6-[6-(6-{[(2S)-1-(1H-tetrazol-1-yl)propan-2-yl]oxy}pyridin-2-yl)imidazo[1,2-b]pyridazin-3-yl]benzonitrile]	< 0.01 µM
C[C@@H](Cn1cnnn1)Oc1cc(-c2ccc3ncc(-c4cnccc4C#N)n3n2)ccc1F [Example 275, 3-[6-(4-fluoro-3-{[(2S)-1-(1H-tetrazol-1-yl)propan-2-yl]oxy}phenyl)imidazo[1,2-b]pyridazin-3-yl]pyridine-4-carbonitrile]	< 0.01 µM
C[C@@H](Cn1cnnn1)Oc1cccc(-c2ccc3ncc(-c4ccc[nH]c4=O)n3n2)c1 [compound 252, 3-[6-(3-{[(2S)-1-(1H-tetrazol-1-yl)propan-2-yl]oxy}phenyl)imidazo[1,2-b]pyridazin-3-yl]-1,2-dihydropyridin-2-one]	< 0.01 µM
COc1ncc(F)cc1-c1cnc2ccc(-c3ccc(F)c(O[C@@H](C)Cn4cnnn4)c3)nn12 [compound 270]	< 0.01 µM
COc1ccnc(-n2cnc3ccc(-c4cccc(O[C@@H](C)Cn5cnnn5)c4)nc32)c1C#N [compound 353]	< 0.01 µM
C[C@@H](Cn1cnnn1)Oc1cccc(-c2ccc3ncn(-c4cc(C(F)F)ccc4C#N)c3n2)c1 [Example 383, 4-(difluoromethyl)-2-[5-(3-{[(2S)-1-(1H-tetrazol-1-yl)propan-2-yl]oxy}phenyl)-3H-imidazo[4,5-b]pyridin-3-yl]benzonitrile]	< 0.01 µM
C[C@@H](Cn1cnnn1)Oc1cccc(-c2ccc3ncc(-c4ccc(F)c(F)c4C#N)n3n2)n1 [compound 460]	0.01 to 0.1 µM
CC(O)c1ccc(C#N)c(-c2cnc3ccc(-c4cccc(O[C@@H](C)Cn5cnnn5)c4)nn23)n1 (stereo partly drawn) [compound 390]	< 0.01 µM
C[C@@H](Cn1cnnn1)Oc1cccc(-c2ccc3ncc(-c4cc(=O)n(C)cc4C#N)n3n2)n1 [compound 465]	< 0.01 µM
C[C@@H](Cn1cnnn1)Oc1cncc(-c2ccc3ncc(-c4cc(F)ccc4C#N)n3n2)c1 [compound 287, 4-fluoro-2-[6-(5-{[(2S)-1-(1H-tetrazol-1-yl)propan-2-yl]oxy}pyridin-3-yl)imidazo[1,2-b]pyridazin-3-yl]benzonitrile]	< 0.01 µM
COc1ccnc(-c2c(F)nn3ccc(-c4cccc(O[C@@H](C)Cn5cnnn5)c4)nc23)c1C#N [compound 377]	0.01 to 0.1 µM
COc1cc(F)cc(-c2cnc3ccc(-c4cc(O[C@@H](C)Cn5cnnn5)ccn4)nn23)c1C#N [compound 438]	< 0.01 µM
C[C@@H](Cn1cnnn1)Oc1cncc(-c2ccc3ncn(-c4cc(F)ccc4C#N)c3n2)c1 [compound 316]	< 0.01 µM
COc1ncc(F)cc1-c1cnc2ccc(-c3cccc(O[C@@H](C)Cn4cnnn4)c3)nn12 [compound 315]	< 0.01 µM
C[C@@H](Cn1cnnn1)Oc1cccc(-c2ccc3ncc(-c4nc(C(F)F)ccc4C#N)n3n2)c1 [compound 388]	< 0.01 µM
C[C@@H](Cn1cnnn1)Oc1cccc(-c2ccc3ncc(-c4ccc(F)cc4C#N)n3n2)n1 [compound 418]	0.01 to 0.1 µM
C[C@@H](Cn1cnnn1)Oc1cc(-c2ccc3ncc(-c4ccnc(N)c4C#N)n3n2)ccc1F [compound 233]	< 0.01 µM
COc1ncnc(-c2cnc3ccc(-c4ccc(F)c(O[C@@H](C)Cn5cnnn5)c4)nn23)c1C#N [compound 402]	< 0.01 µM

Reference: US12528816B2, “Substituted imidazo [1,2-b] pyridazines and [1, 2, 4] triazolo [ 4,3-b] pyridazines as camkii inhibitors” (Cardurion Pharmaceuticals, INC., priority 2020, dated 2026)
